Data from patent US11865157B2, “Compositions and methods of targeting cancer stem cells” (University of Houston System, priority 2016, dated 2024).
Numbered stars: 1 amine (or outer) side, 2 acyl side, 3 side chain; on linkers, the order of the positions; unused ones are H or OH. Square brackets hold non-standard residues; d marks the D form. Peptide text beside a SMILES is read from it. ξ: configuration not given here. Gly(N-piperonyl) = O=C(O)CNCc1ccc2c(c1)OCO2; X1 = CC(c1ccccc1)N(CC(=O)[*:2])[*:1]; Nlys = NCCCCNCC(=O)O; ξK = NCCCCC(N)C(=O)O; ξM = CSCCC(N)C(=O)O; Nme = COCCNCC(=O)O

Assays:
plectin = target: T1, plectin (Homo sapiens, UniProt Q15149); assay: Magnetic-bead binding assay with plectin antibody competition or plectin siRNA knockdown
T1 construct: endogenous in cells; host or cells: H358, H1693, H1975, H1993 cells
T1 sequence (Q15149 whole entry): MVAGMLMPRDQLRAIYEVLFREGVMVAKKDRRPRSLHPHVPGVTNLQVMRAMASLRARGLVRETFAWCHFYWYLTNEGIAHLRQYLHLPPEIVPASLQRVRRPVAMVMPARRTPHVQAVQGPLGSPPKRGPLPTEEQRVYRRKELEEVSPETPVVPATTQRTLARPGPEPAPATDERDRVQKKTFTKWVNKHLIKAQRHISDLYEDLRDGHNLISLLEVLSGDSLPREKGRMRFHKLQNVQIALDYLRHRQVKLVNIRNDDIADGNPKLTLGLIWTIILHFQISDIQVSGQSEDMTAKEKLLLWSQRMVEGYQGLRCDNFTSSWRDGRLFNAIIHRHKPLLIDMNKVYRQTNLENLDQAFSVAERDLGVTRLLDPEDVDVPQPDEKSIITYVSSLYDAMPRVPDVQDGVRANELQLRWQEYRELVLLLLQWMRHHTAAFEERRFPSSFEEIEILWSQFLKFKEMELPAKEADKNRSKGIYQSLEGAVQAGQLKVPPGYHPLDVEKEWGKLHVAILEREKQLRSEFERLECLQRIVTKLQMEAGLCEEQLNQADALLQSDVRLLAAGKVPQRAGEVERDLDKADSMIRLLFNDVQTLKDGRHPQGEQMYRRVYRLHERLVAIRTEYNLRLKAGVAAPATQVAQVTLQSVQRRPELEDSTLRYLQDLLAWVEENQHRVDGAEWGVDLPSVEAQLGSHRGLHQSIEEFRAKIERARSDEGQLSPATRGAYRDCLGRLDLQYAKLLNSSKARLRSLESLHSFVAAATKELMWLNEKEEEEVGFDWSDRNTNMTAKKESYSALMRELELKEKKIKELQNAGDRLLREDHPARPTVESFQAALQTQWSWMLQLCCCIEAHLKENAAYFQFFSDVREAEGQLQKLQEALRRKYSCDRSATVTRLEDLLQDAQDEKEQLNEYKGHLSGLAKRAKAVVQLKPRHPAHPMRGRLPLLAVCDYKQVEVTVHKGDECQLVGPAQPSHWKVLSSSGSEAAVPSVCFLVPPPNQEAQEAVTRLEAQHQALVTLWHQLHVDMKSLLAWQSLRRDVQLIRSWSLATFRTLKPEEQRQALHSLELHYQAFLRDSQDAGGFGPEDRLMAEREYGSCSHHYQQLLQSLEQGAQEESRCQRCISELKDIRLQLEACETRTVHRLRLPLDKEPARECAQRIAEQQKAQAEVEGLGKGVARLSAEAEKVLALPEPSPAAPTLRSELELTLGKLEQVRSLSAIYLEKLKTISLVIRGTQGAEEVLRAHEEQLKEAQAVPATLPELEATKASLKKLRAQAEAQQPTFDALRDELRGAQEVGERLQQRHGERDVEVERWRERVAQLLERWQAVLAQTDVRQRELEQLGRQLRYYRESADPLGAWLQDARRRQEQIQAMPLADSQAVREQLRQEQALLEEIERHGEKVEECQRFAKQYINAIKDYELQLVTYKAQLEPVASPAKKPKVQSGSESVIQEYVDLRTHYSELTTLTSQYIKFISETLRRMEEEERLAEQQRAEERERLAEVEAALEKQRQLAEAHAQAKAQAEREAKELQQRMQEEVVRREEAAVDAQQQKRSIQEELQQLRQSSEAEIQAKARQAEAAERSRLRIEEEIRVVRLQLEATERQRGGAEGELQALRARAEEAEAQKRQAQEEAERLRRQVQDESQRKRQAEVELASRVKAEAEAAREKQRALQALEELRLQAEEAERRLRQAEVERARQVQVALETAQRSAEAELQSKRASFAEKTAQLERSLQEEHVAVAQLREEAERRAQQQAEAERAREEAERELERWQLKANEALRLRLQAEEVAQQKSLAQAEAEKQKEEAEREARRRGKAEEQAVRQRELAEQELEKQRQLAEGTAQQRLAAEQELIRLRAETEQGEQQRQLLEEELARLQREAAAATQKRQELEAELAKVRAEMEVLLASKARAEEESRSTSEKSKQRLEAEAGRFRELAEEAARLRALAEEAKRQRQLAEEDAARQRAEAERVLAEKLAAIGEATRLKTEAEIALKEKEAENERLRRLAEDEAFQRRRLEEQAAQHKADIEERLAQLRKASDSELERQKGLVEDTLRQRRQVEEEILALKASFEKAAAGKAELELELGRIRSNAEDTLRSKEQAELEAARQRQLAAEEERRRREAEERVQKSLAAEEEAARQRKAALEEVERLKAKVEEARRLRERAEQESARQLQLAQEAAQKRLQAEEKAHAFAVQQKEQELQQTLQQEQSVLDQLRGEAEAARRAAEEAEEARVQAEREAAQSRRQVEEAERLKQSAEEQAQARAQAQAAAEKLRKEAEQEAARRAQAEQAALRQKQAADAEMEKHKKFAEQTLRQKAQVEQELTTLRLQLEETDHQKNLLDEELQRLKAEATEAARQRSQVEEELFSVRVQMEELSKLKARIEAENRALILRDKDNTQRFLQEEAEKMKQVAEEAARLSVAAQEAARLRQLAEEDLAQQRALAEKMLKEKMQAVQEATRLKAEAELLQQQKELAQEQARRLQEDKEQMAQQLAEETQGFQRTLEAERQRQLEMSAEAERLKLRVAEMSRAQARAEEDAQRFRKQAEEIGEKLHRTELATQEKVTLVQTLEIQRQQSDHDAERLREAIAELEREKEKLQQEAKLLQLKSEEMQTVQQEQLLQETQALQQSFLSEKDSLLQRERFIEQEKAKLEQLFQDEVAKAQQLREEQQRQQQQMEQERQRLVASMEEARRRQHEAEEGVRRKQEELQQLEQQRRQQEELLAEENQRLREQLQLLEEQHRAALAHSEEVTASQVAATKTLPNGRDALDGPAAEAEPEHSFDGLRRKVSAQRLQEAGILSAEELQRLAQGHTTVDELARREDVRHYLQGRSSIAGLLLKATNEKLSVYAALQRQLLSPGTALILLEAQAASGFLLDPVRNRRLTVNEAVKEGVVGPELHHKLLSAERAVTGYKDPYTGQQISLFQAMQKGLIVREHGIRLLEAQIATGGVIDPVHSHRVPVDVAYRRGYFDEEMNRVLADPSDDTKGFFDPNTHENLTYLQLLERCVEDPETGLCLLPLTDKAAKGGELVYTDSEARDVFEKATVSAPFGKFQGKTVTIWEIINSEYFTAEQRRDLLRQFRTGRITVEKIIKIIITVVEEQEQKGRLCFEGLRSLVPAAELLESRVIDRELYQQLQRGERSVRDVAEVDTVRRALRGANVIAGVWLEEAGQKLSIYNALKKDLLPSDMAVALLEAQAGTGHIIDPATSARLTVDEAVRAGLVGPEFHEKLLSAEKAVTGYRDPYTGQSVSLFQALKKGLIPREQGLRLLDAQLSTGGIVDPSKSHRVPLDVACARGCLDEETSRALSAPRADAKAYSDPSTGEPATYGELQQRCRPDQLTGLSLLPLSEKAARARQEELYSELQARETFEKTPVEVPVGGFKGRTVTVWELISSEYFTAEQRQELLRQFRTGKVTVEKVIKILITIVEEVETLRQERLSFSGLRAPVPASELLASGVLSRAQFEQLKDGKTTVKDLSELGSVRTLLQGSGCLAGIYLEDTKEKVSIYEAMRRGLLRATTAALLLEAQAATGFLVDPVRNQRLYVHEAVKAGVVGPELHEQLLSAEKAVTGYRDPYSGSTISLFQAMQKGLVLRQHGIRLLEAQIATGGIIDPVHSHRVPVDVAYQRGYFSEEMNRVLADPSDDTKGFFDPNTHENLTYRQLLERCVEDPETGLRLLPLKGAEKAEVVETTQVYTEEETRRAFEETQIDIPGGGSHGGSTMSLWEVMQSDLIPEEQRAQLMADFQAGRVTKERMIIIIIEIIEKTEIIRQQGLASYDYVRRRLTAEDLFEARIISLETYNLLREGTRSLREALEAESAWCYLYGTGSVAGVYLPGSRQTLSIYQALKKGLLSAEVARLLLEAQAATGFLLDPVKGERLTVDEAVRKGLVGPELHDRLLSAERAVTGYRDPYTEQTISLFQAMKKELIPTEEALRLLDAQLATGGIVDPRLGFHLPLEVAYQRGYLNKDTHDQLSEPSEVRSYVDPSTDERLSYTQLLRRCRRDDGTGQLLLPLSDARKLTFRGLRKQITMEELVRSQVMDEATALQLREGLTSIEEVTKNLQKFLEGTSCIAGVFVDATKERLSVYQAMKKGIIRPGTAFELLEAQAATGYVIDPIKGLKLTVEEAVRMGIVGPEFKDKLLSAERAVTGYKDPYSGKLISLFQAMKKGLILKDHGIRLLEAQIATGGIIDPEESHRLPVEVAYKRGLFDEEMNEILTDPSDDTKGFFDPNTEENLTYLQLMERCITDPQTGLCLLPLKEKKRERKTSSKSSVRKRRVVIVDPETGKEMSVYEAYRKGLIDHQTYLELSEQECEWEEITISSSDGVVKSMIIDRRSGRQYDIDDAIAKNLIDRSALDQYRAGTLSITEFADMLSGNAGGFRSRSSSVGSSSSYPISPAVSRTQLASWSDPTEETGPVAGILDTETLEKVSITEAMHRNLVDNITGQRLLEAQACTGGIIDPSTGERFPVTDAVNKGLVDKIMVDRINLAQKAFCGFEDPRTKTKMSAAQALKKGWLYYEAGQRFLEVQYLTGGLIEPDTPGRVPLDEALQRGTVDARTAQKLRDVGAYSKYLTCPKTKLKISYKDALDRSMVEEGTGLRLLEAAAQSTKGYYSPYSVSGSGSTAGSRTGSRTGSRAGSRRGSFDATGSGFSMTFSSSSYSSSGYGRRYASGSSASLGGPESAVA
Procedure: Unsorted H358 cells were plated on a 6-well plate and grown to 80% confluence. For each well, 9 μL of Lipofectamine RNAiMAX (Thermo Fisher) was mixed with 3 μL of 10 μM siRNA, either silencer select s10644 plectin or silencer select negative control 1 (Thermo Fisher), in serum-free RPMI and incubated for 5 minutes. The mixture was then added to the well and incubated for 1 to 4 days before testing. Magnetic binding assays were performed on harvested cells as described above for binding evaluation.
(§1) Plectin expression was directed tested on PCS2-bound cells from H358, HCC4017, H460, H1299, H2073, H1693, H1993, H1975 cells by RT-QPCR (FIG. 22A). […] To determine if PCS2 and the plectin antibody compete for binding, the magnetic-bead binding assay was repeated in the presence of the plectin antibody. […] Since previous reports have shown cells to be sufficiently stable for further assays with plectin knock-down, plectin knockdown was conducted in H358, H1693, H1975 and H1993 cells using siRNA using the magnetic-bead binding assay described above. […] From these observations, it was concluded that plectin is the cell-surface marker that PCS2 is targeting.

H358 and HCC4017 cells = assay: ALDEFluor staining of PCS2-bound and PCS2-unbound fractions; assay type: cell-based
Procedure: To confirm that the peptoid-bound fraction was CSCs, a subset of PCS2-bound and PCS2-unbound fractions from H358 cells were generated and stained with the ALDEFLuor kit, which produces green fluorescence when the ALDH protein is active in a cell, and DAPI, and then analyzed them under a fluorescence microscope. […] An equal number of PCS2-bead sorted cells from the H358 and HCC4017 cell lines were also treated with the Aldefluor kit and their relative fluorescence was evaluated using a spectrophotometer (FIG. 7B & C).

H358 cells = assay: Magnetic-bead pull-down assay; assay type: cell-based
Procedure: (§2) On-bead binding assay: 50 mg of peptoid-carrying tentagel beads or 1.3×10^6 of peptoid-carrying magnetic beads were equilibrated in 2 mL RPMI containing 5% FBS and 3% BSA (Sigma) for 1 hour by shaking. The beads can then be equilibrated with 5×10^6 of each cancer cell type listed above in 2 mL RPMI containing 5% FBS and 1% BSA at room temperature for 15-60 minutes for binding. The cell-bound beads are then pulled down with a magnet and washed with RPMI to cleanly harvest bound cells. Unbound cells were collected separately for further confirmations.
To confirm the binding specificity of PCS2 to CSCs, CSCs isolated from H358 cells and normal mesenchymal stem cells (MSCs) were exposed to PCS2-carrying beads as described in Example 3, and then separated by magnet into peptoid-bound and peptoid-unbound fractions (FIG. 19A). […] RNA from both bound and unbound fractions was harvested and analyzed by RT-qPCR to determine the relative expression of several known CSC biomarkers in each fraction was assessed, including expression of ALDH1A3 (FIG. 19B), CD133 (FIG. 19C), CD44 (FIG. 19D), and SOX2 (FIG. 19E). […]
To further evaluate this plectin-CSC connection, it was confirmed that CSCs can be isolated through cell surface plectin via a PCS2-independent approach. […] Next the mRNA levels of two known CSC biomarkers was analyzed on these cell groups by RT-QPCR, along with plectin (PLEC). […]

[1] = test system: lung cancer cell lines (HCC4017, H358, H366, H460, H1299, H2073, H1693, H1993, H1975); assay: RT-qPCR of CSC markers and PLEC in PCS2-bead bound vs unbound fractions of lung cancer cell lines; assay type: cell-based
Procedure: Using the same basic approach, peptoid-bound and peptoid-unbound fractions were generated from the lung cancer cells lines HCC4017, H358, H366, H460 for the PCS2 compound, and the relative expression of CSC marker SOX2 was evaluated between each fraction.
To confirm the binding specificity of PCS2 to CSCs, CSCs isolated from H358 cells and normal mesenchymal stem cells (MSCs) were exposed to PCS2-carrying beads as described in Example 3, and then separated by magnet into peptoid-bound and peptoid-unbound fractions (FIG. 19A). […] To further evaluate PCS2 specificity towards CSCs, HCC4017, H460, H1299, H2073, H1693, H1993, and H1975 cells were exposed to PCS2-carrying beads, and then separated by magnet into peptoid-bound and peptoid-unbound fractions. RNA from both bound and unbound fractions was harvested and analyzed by RT-qPCR to determine the relative expression of several known CSC biomarkers in each fraction was assessed, including expression of ALDH1A3 (FIG. 19B), CD133 (FIG. 19C), CD44 (FIG. 19D), and SOX2 (FIG. 19E). CD44 and SOX2 expressions were high on PCS2-coated magnetic-bead bound fractions from the almost all cell lines having higher expression of CSC biomarkers compared to the unsorted or unbound fractions confirming that the capacity of PCS2 to bind to CSCs is not exclusive to H358 cells. The correlation to ALDH1A3 and CD133 were varied, which is typical due to the high heterogeneity of CSC biomarker expressions, and there are no 100% biomarker correlations exists.
as §1

ALDH+ H358 CSCs = assay: On-bead binding of sorted ALDH+ and ALDH− H358 cells to PCS2-carrying beads; assay type: cell-based
Procedure: as §2
To confirm the binding specificity of PCS2 to CSCs, sorted ALDH+ H358 CSCs (red stained) and ALDH− H358 cells (green stained) were exposed to PCS2-carrying beads. […] The same assay was repeated after allowing these CSC population to grow for 2 weeks, where by then the CSC percentage in the ALDH+ sorted population became low, the number of cells bound was very low (FIG. 4E), indicating PCS2 recognizes a unique target specific for CSCs, but not other cancer cells.

[2] = HCC4017, H460, H1299, H2073, H1693, H1993, H1975, almost all cell lines

COCCNCC(=O)N(CCCCN)CC(=O)N(CC(=O)N(CC(=O)N(CCCCN)CC(=O)NC(CCCCN)C(=O)N[C@H](CCCCN)C(=O)NC(CCSC)C(N)=O)C(C)c1ccccc1)Cc1ccc2c(c1)OCO2 (stereo partly drawn) [PCS2] (H-[Nme][Nlys][Gly(N-piperonyl)][X1][Nlys][ξK][dK][ξM]-NH2)
bound cells after plectin siRNA knockdown vs control siRNA (plectin; H358, H1693, H1975 and H1993 cells): dramatic decrease | cells bound to PCS2-magnetic-beads in the presence of plectin antibody (plectin; all cell lines tested): fewer cells bound | ALDEFluor green fluorescence of PCS2-bound fraction (H358 and HCC4017 cells; H358, fluorescence microscope, vs unbound or untreated fractions): significantly stronger green fluorescence | relative ALDEFluor fluorescence of PCS2-bead sorted cells (H358 and HCC4017 cells; H358 and HCC4017, spectrophotometer): fluorescence was higher in bound cells | binding of PCS2 beads to CSCs from H358 vs normal MSCs (H358 cells; bound vs unbound fractions): bound significantly higher on CSCs from H358 than normal MSCs | cells isolated (pull-down) from H358 (H358 cells; coated magnetic beads): 28-38% | Plectin expression in PCS2-bound cells vs unbound cells ([1]; H358, HCC4017, H460, H1299, H2073, H1693, H1993, H1975, RT-QPCR): significantly higher | relative expression of SOX2 in PCS2-bead fractions ([1]; HCC4017, H358, H366, H460, vs unsorted or unbound fractions): increased expression of SOX2 | CD44 expression in PCS2-coated magnetic-bead bound fractions [1, 2]: high | SOX2 expression in PCS2-coated magnetic-bead bound fractions [1, 2]: high | number of cells bound to PCS2-beads (ALDH+ H358 CSCs; ALDH+ sorted population after 2 weeks of growth): very low | binding of PCS2-beads to sorted ALDH+ (red) vs ALDH− (green) H358 cells (ALDH+ H358 CSCs; freshly sorted cells): only bound significantly to the red CSCs
